In patent publication US11925178B1, “2′-alkyloxy-6′-phenyl[3,4′-bipyridine]-3′-carbonitrile as an insecticidal agent against Aphis craccivora” (priority 2023, dated 2024):
In brackets after ≈: the same amount, converted by molar mass. Like-named read-outs stand apart in the source and are kept apart here.

What was measured:
[1] = test system: nymphs of cowpea aphid (Aphis craccivora); experiment: Leaf dipping insecticidal bioassay, nymphs of cowpea aphid; format: in vivo; details: 24 h; for LC50: Aphis craccivora, foliar; for Toxic ratio: Acetamiprid's LC50 / the compound's LC50
Procedure: (§1) The original batches of cowpea aphid insects were collected from pest's laboratory, Plant Protection Research Institute, Agricultural Research Center. The target compounds were screened for their insecticidal activity towards nymphs and adults of cowpea aphid.
(§2) The insecticidal activities of compounds 4 and 5 were measured by using leaf dipping method under the same reported laboratory conditions. Five concentrations of compound 4, 5 and 0.1% Tween-80 as a surfactant were used. Nearly the same size 30 nymphs and 30 adults of cowpea aphid insects were used for dipping for 10 second in every concentration of each compound (repeat three times). Insects which tested were allowed to stand to dry at room temperature for about half an hour. In the control experiment, the insects were dunked in distilled water and 0.1% tween-80 only. These applications were carried out at 5% relative humidity, and at a temperature of 25° C. After the used insect had dried, they were transferred to glass jars containing water. With a new binocular microscope, the aphid mortality was taken after 24 hrs of treatment. Any aphid that was unable to move was considered dead. The LC50 values used to evaluate the insecticidal activity were estimated by probit analysis.

[2] = test system: adults of cowpea aphid (Aphis craccivora); experiment: Leaf dipping insecticidal bioassay, adults of cowpea aphid; format: in vivo; details: 24 h; for LC50: Aphis craccivora, foliar; for Toxic ratio: Acetamiprid's LC50 / the compound's LC50
Procedure: as §1, §2

[3] = nymphs, after 24 h of treatment, leaf dipping, probit analysis, read-out: LC50
[4] = adults, after 24 h of treatment, leaf dipping, probit analysis, read-out: LC50

| SMILES | LC50 [1, 3] | Toxic ratio ([1]; nymphs) | LC50 [2, 4] | Toxic ratio ([2]; adults) | LC50 [1] | LC50 [2] |
| --- | --- | --- | --- | --- | --- | --- |
| CCOc1nc(-c2ccccc2)cc(-c2cccnc2)c1C#N [Compound 4, 2′-Ethoxy-6′-phenyl[3,4′-bipyridine]-3′-carbonitrile] | ~0.0781 µg/mL (≈ 0.259 µM) | 0.576 | ~1.3 µg/mL (≈ 4.32 µM) | 0.205 |  |  |
| C/C(=N\C#N)N(C)Cc1ccc(Cl)nc1 [Acetamiprid, acetamiprid, reference compound] |  | 1 |  | 1 | 0.045 µg/mL (≈ 0.202 µM) | 0.267 µg/mL (≈ 1.2 µM) |
| COc1nc(-c2ccccc2)cc(-c2cccnc2)c1C#N [Compound 5, 2′-Methoxy-6′-phenyl[3,4′-bipyridine]-3′-carbonitrile] | ~0.0842 µg/mL (≈ 0.293 µM) | 0.0534 | 1.4 µg/mL (≈ 4.87 µM) | 0.190 |  |  |
